Assay results from US12378199B2, “Rigidified pentadentate chelating agents useful for the [Al18F]2+ labelling of biomolecules” (UNIVERSITÀ DEGLI STUDI DEL PIEMONTE ORIENTALE “A. AVOGADRO”, priority 2019, dated 2025).

Experiment: stability of the AlF-18 complexes by incubation in human serum
Assay type: in vitro ADME
Experimental: The reactions for labelling with [AlF-18]^2+ were carried out at various pH (between 4 and 6.5) and at various temperatures (25, 37 and 80°). The preparation of [AlF-18]^2+ and the subsequent labelling with the chelating agents covered by the present patent were carried out according to the procedure cited by Bormans and colleagues (Nature Prot. 2018, 13, 2330-2347). The labeled products were purified using Sep-Pak Alumina N Plus Light cartridges and eluted with a 0.9% NaCl solution. All of the products were analyzed by means of radio-TLC and radio-HPLC and the stability of the tracers was studied at 10, 30, 60, 120 and 240 minutes by means of incubation in […] different solutions: human serum, PBS, EDTA 5 mM and 0.9% NaCl solutions.
An additional advantage is the stability in human serum detected for the compounds of the present invention. An increased stability in human serum was measured for the chelating agent 2-AMPDA-HB, with 90% of AlF-18 still complexed after 120 minutes, whereas the complexed percentage was 55% for the chelating agent 2-AMPTA.

For `O=C(O)CN(CC(=O)O)CC1CCCCN1CC(=O)O` (centres unmarked) [2-AMPTA], the “AlF-18 still complexed in human serum” value (after 120 minutes) was 55% and the “stability of the AlF-18 complexes in human serum” value (after 240 minutes) was 33%.
